Reference: US8999955B2, “Tetrahydrocyclopenta[c]acridine derivatives as kinase inhibitors and biological” (Centre National de la Recherche Scientifique, priority 2008, dated 2015)
Several values for one entry are separate records, joined by “and”; a condition that tells them apart may be missing. Equal entries are not always repeated.

Tests used:
[1] = test system: SHSY cells; assay: MTS test, viability of SHSY cells; format: cell-based; details: MTS reduction
Method: The viability of SHSY cells is determined by measuring the MTS reduction as described in (6).

[2] = target: CDK1; assay: Enzyme inhibition test, radiolabeled ATP, CDK1; format: biochemical; details: dose-response curves
Method: (§1) The tests are carried out as follows: the enzyme to be assayed was purified, for example by affinity chromatography on agarose beads. The catalytic activity was measured using radiolabeled ATP, at a standard final concentration. The test compounds were added at various concentrations making it possible to establish dose-response curves (activity of the enzyme as a function of the concentration). The IC50 values were calculated from these curves and are given in μM.

[3] = target: CDK5 (Homo sapiens (Human), UniProt Q00535); assay: Enzyme inhibition test, radiolabeled ATP, CDK5; format: biochemical; details: dose-response curves
Method: as §1

Chain of CDK5 (Q00535 whole entry, species assumed): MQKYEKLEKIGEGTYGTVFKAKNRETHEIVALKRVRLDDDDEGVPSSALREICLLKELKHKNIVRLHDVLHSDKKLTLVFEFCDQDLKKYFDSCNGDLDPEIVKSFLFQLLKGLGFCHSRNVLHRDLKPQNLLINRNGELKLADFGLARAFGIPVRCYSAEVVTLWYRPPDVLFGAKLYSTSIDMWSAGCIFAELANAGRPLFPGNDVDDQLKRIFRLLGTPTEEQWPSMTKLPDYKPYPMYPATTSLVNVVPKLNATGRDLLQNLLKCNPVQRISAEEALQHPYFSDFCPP
Chain of CDK5 (Q15078 99-307 partner, species assumed): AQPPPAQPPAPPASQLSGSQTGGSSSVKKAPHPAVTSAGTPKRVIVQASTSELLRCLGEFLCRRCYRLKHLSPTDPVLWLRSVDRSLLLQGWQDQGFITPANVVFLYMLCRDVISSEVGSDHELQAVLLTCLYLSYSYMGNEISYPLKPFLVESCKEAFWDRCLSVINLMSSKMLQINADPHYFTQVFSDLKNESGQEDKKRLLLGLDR

| Compound | % survival of SHSY cells at 10 μM [1] | IC50 [2] | IC50 [3] | melting point |
| --- | --- | --- | --- | --- |
| C[Si](C)(C)C#Cc1nc2ccccc2cc1C(=O)CC[N+](=O)[O-] [1-(2-Trimethylsilanylethynyl)quinolin-3-yl)propan-3-nitro-1-one] | 47% | – | – | – |
| C[Si](C)(C)C1=C2c3nc4ccccc4cc3C(Cl)CC2CC1=O (stereo not drawn) [5-Chloro-1-trimethylsilanyl-3,3a,4,5-tetrahydro-2H-cyclopenta[c]acridin-2-one] | – | 3.6 µM | 63 µM | – |
| C=CC(O)c1cc2ccccc2nc1C#C[Si](C)(C)C (stereo not drawn) [1-(2-(Trimethylsilanylethynyl)quinolin-3-yl)propan-2-en-1-ol] | 0.4% | – | – | – |
| COc1ccc2nc3c(cc2c1)C(O)CC1CC(=O)C([Si](C)(C)C)=C31 (stereo not drawn) [5-Hydroxy-8-methoxy-1-trimethylsilanyl-3,3a,4,5-tetrahydro-2H-cyclopenta[c]acridin-2-one] | – | 1.7 µM | 4 µM | 186 °C |
| COc1cc2cc3c(nc2cc1OC)C1=C([Si](C)(C)C)C(=O)CC1CC3O (stereo not drawn) [5-Hydroxy-8,9-dimethoxy-1-trimethylsilanyl-3,3a,4,5-tetrahydro-2H-cyclopenta[c]acridin-2-one] | – | 1.7 µM | 3.3 µM | 221 to 222 °C |
| CC(=O)c1cc2ccccc2nc1C#Cc1ccccn1 [1-(2-(Pyridin-2-ylethynyl)quinolin-3-yl)ethanone] | 4% | – | – | – |
| COc1ccc2cc3c(nc2c1)C1=C([Si](C)(C)C)C(=O)CC1CC3O (stereo not drawn) [5-Hydroxy-9-methoxy-1-trimethylsilanyl-3,3a,4,5-tetrahydro-2H-cyclopenta[c]acridin-2-one] | 44% | 1.6 µM | 4.8 µM | 187 °C |
| C[Si](C)(C)C1=C2c3nc4ccccc4cc3C(O)CC2CC1=O (single isomer, unassigned) [5-hydroxy-1-trimethylsilanyl-3,3a,4,5-tetrahydro-2H-cyclopen] [5-hydroxy-1-trimethylsilanyl-3,3a,4,5-tetrahydro-2H-cyclopenta[c]acridin-2-one] | – | – | 26 µM and 3 µM | – |
| C[Si](C)(C)C1=C2c3nc4ccccc4cc3C(O)CC2CC1=O (racemic) [5-Hydroxy-1-trimethylsilanyl-3,3a,4,5-tetrahydro-2H-cyclopenta[c]acridin-2-one] | 85% | – | 1.6 to 2.3 µM | 167 to 168 °C |
| C=CCC(O)c1cc2ccccc2nc1C#CCOC1CCCCO1 (stereo not drawn) [1-(2-[3-(Tetrahydropyran-2-yloxy)prop-1-ynyl]quinolin-3-yl)but-3-en-1-ol] | 2% | – | – | – |
| CCCCC1=C2c3nc4ccccc4cc3C(=O)CC2CC1=O (stereo not drawn) [5-Keto-1-butyl-3,3a,4,5-tetrahydro-2H-cyclopenta[c]acridin-2-one] | 38% | – | – | – |
